According to EP4205737A1, “COMPOSITION FOR PREVENTION, AMELIORATION, OR TREATMENT OF INFLAMMATORY DISEASES OR IMMUNE DISEASES COMPRISING GANCAONIN N AS ACTIVE INGREDIENT” (UNIVERSITY-INDUSTRY COOPERATION GROUP OF KYUNG HEE …, priority 2020, dated 2022):

Assays:
p65 = experiment: MAPK/NF-κB signaling pathway: p65 in LPS-stimulated A549 cells; type: cell-based, human
Protocol: RAW264.7 cells and A549 cells were dispensed into 6-well plates (1 × 10^6 cells/well) and cultured under conditions of 37°C and 5% CO2. After the culturing, the Raw 264.7 cells were treated with 1 µg/mL of lipopolysaccharide (LPS) and the A549 cells were treated with 5 µg/mL of lipopolysaccharide (LPS) and with 5 µM to 40 µM of gancaonin N, and the cells were cultured for 24 hours or 6 hours. Then, the cells were lysed using a lysis buffer. In addition, the left lung extracted from each mouse was lysed using RIPA buffer. SDS-PAGE electrophoresis was performed on the cell and tissue lysates to separate proteins by side, and 5% bovine serum albumin was used for culturing and for blocking antibodies against PGE2 (1:500), IL-1β (1:500), IL-6 (1:500), TNF-α (1:500), i-NOS (1:500), COX-2 (1:1000), P-ERK1/2 (1:1000), ERK1/2 (1:3000), P-p38 (1:1000), p38 (1:3000), NF-κB p65 (1:1000), Lamin B1 (1:1000), and β-actin (1: 5,000).
A549 cells were dispensed into 6-well plates (1 × 10^4 cells/well) and cultured under conditions of 37°C and 5% CO2. After the culturing, the A549 cells were treated with of 5 ug/mL of lipopolysaccharide (LPS) and with 5 µM to 40 µM of gancaonin N, and the cells were then cultured for 6 hours. […] For fluorescence observation, EVOSR Cell Imaging systems (Thermo Fisher Scientific, Waltham, MA, USA) were used. […]

IL-1β = experiment: Western blotting of IL-1β in lung of LPS-induced acute lung injury mouse model; type: in vivo, BALB/c mice; details: mice, 10 mg/kg or 30 mg/kg intraperitoneally, LPS-induced ALI, Western blotting (FIG. 8)
Protocol: 25 6-week-old female BALB/c mice having a weight of 18g to 20 g were purchased from BioLink (DBL CO., Eumseong, Chungcheongbuk-do, Korea), and reared in the animal laboratory of KyungHee University. To establish an LPS-induced acute lung injury model, all the mice were divided into five groups each group of which consisted of 5 mice, and the five groups were referred to as control, vehicle (only LPS treatment), gancaonin N (10 mg/kg), gancaonin N (30 mg/kg), and dexamethasone (3 mg/kg). Gancaonin N was intraperitoneally injected at a dose of 10 mg/kg or 30 mg/kg, and dexamethasone was intraperitoneally injected at a dose of 3 mg/kg as a positive control group. In addition, the control and vehicle groups were intraperitoneally injected with 4% DMSO in which gancaonin N was dissolved. Then, 10 µg/50 µL of LPS was intratracheally administered to the mice except for the control group one hour later (the control group mice were administered 50 µL of PBS), and the mice were sacrificed 12 hours later.
RAW264.7 cells and A549 cells were dispensed into 6-well plates (1 × 10^6 cells/well) and cultured under conditions of 37°C and 5% CO2. […]
To specifically investigate whether gancaonin N can inhibit pro-inflammatory factors in a mouse model, the protein expression levels of COX-2, IL-1β, and TNF-α were measured by Western blotting as described in Examples 1 to 6 above.

`COc1ccc(-c2coc3cc(O)c(CC=C(C)C)c(O)c3c2=O)c(O)c1` [gancaonin N, 5,7-dihydroxy-3-(2-hydroxy-4-methoxyphenyl)-6-(3-methylbut-2-enyl)chromen-4-one] was tested, and the “activity/protein expression levels of p65” value (p65; 5µM to 40 µM 2 hours before LPS treatment (FIG. 5C)) was “significantly reduced”, the “amount of gancaonin N at which the inhibitory effect on the activity/protein expression levels of p65 was most excellent” value (p65; LPS, tested 5µM to 40 µM) was 40 µM and the “protein expression level of IL-1β in lung” value (IL-1β) was “significantly reduced”.
